Consider 27 molecules from patent publication US5807981A (FibroGen Inc., priority 1995, dated 1998).

Where two headings read alike, the source gives them in different places. Starred links: 1 amine or outer side, 2 acyl side, 3 side chain; linkers in the order of their positions; H or OH if unused. Non-standard residues stand in square brackets, D forms with d. Residues, ends and D or L forms follow the SMILES beside them. *: point of attachment. Sta = CC(C)C[C@H](N)[C@@H](O)CC(=O)O; Isovaleryl = CC(C)CC(=O)*; CO = O=C([*:1])[*:2]

In assay [1] the test system is C-proteinase. As to conditions: cited from earlier work; for inhibitory at low concentrations / concentrations at which inhibitory / inhibition of C-proteinase activity (in words): background, prior art.
Assay [2] deals with T1, C-proteinase (Homo sapiens, UniProt P13497).
T1 sequence (P13497 121-986): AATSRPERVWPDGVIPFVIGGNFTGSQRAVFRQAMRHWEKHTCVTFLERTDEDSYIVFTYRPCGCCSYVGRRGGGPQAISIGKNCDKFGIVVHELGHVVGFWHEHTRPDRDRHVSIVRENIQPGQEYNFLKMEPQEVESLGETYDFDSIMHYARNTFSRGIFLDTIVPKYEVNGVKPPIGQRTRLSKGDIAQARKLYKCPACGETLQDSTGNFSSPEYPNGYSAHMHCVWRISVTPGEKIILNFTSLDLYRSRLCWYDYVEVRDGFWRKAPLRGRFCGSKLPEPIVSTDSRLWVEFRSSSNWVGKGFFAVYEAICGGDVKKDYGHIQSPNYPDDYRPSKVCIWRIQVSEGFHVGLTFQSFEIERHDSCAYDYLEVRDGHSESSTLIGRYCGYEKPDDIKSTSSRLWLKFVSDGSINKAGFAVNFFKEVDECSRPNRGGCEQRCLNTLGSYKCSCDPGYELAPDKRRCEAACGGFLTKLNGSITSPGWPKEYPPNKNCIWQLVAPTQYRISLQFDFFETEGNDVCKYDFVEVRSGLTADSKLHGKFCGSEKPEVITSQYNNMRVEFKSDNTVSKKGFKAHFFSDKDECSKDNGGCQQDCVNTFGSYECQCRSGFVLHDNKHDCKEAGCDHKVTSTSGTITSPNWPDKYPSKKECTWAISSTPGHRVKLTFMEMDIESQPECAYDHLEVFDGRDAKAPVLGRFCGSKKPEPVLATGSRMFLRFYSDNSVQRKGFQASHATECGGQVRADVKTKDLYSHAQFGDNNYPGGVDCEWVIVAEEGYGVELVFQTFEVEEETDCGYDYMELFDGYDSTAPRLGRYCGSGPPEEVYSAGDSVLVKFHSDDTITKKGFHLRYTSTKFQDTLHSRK
Put plainly: Cleavage of synthetic procollagen cleavage-site peptides by active C-proteinase. The assay is classed as biochemical. To be noted: for Cleavability: Table 1, cleavability of peptides resembling the C-proteinase cleavage site of procollagen; for cleavability by C-proteinase: truncated and extended peptides compared with original peptide SEQ ID NO:6. From the text: A variety of short peptides comprising five (5) to twelve (12) amino acids was synthesized and tested for cleavage by active C-proteinase.
First, four peptides, each comprising eight (8) amino acids corresponding to the cleavage region of several procollagens were synthesized. See, TABLE 1, SEQ ID NO:3, SEQ ID NO:4, SEQ ID NO:5, and SEQ ID NO:6. All four peptides were examined for cleavability by C-proteinase. […] Indeed, one would expect that recognition of the cleavage site depends on structural requirements which cannot be resembled by only eight (8) amino acids.
Second, a series of peptides was prepared based on the sequence of original peptide SEQ ID NO:6. Specifically, peptides were designed resembling the core of the peptide comprising SEQ ID NO:6, but with truncations of one, two and three amino acids from either side of the cleavage site. A further peptide was synthesized resembling two additional amino acids at both the N-terminus and C-terminus of the original peptide comprising SEQ ID NO:6.
Removing two or more amino acids from either end of the original SEQ ID NO:6 sequence, however, yielded a non-cleavable peptide (SEQ ID NOS:9, 10, 12, 13).

On to `[Cl-].[Na+]` [NaCl], for which the “activity relative to that observed with the standard assay concentration of 0.15M” value in the assay with C-proteinase [1] (0.2M NaCl) is on record as 66%; with C-proteinase [1] (0.3M NaCl) it was 38%; in the assay with C-proteinase [1] (0.5M NaCl), 25%.

For the molecule `[Zn+2]` [Zn^2+], in the assay on C-proteinase [1], the “inhibitory at low concentrations” value is recorded as “inhibitory at low concentrations”.

Tris-HCl [Tris-HCl buffer]: the “inhibition of C-proteinase activity by buffer” value in the assay with C-proteinase [1] (concentration of 0.2-0.5M) is reported as “markedly inhibited activity”.

In the case of phosphate, the “concentrations at which inhibitory” value in the assay with C-proteinase [1] is 1 to 10 mM.

Regarding `CC(C)CC(=O)N[C@H](C(=O)N[C@H](C(=O)N[C@@H](CC(C)C)[C@@H](O)CC(=O)N[C@@H](C)C(=O)N[C@@H](CC(C)C)[C@@H](O)CC(=O)O)C(C)C)C(C)C` [pepstatin A] (Isovaleryl-VV[Sta]A[Sta]-OH), the “inhibition of C-proteinase activity (in words)” value (shortened to “inhibition … (in words)”) in the assay on C-proteinase [1] is “relatively strong inhibitors”.

With `O[C@H](CS)[C@H](O)CS` (racemic) [Dithiothreitol], the “inhibitory at low concentrations” value with C-proteinase [1] is “inhibitory at low concentrations”.

Regarding `CCCCCCCCCCCCOS(=O)(=O)[O-].[Na+]` [SDS], the “inhibitory at low concentrations” value in the assay with C-proteinase [1] is on record as “inhibitory at low concentrations”.

As to `CSCC[C@H](NC(=O)[C@@H]1CCCN1C(=O)[C@H](CCC(=O)O)NC(=O)[C@H](CC(=O)O)NC(=O)CNC(C)=O)C(N)=O` [SEQ ID NO:13, Ac-G-DEPM-NH2] (Ac-GDEPM-NH2), on C-proteinase [2], the Cleavability result was “none” and the “cleavability by C-proteinase” value was “non-cleavable”.

Turning to `N=C(N)NCCC[C@H](N)C(=O)O` [arginine], in the assay on C-proteinase [1], the “inhibition … (in words)” value was “inhibited”.

As for `CC(=O)N[C@@H](Cc1ccc(O)cc1)C(=O)N[C@@H](Cc1ccc(O)cc1)C(=O)N[C@@H](CCCNC(=N)N)C(=O)N[C@@H](C)C(=O)N[C@@H](CC(=O)O)C(=O)N[C@@H](CC(=O)O)C(=O)N[C@@H](C)C(=O)N[C@@H](CC(N)=O)C(N)=O` [SEQ ID NO:3, Ac-YYRA-DDAN-NH2] (Ac-YYRADDAN-NH2), at C-proteinase [2], the Cleavability entry is listed as “slight” and the “cleavability by C-proteinase” value is reported as “cleaved by C-proteinase”.

With `CC(C)C[C@H](NP(=O)(O)O[C@@H]1O[C@@H](C)[C@H](O)[C@@H](O)[C@H]1O)C(=O)N[C@@H](Cc1c[nH]c2ccccc12)C(=O)O` [phosphoramidon], the “inhibition … (in words)” value in the assay with C-proteinase [1] is listed as “weak or no effect”.

For `[Cu+2]` [Cu^2+], in the assay with C-proteinase [1], the “inhibitory at low concentrations” value was “inhibitory at low concentrations”.

Turning to `CC(C)C[C@H](NC(=O)[C@@H](O)[C@H](N)Cc1ccccc1)C(=O)O` [bestatin], the “inhibition … (in words)” value in the assay on C-proteinase [1] is reported as “weak or no effect”.

Take concanavalin A: the “inhibitory at low concentrations” value in the assay with C-proteinase [1] is recorded as “inhibitory at low concentrations”.

In the case of `CC(C)C[C@@H](N)[C@H](O)C(=O)N[C@H](C(=O)N[C@H](C(=O)N[C@@H](CC(=O)O)C(=O)O)C(C)C)C(C)C` [amastatin], the “inhibition … (in words)” value with C-proteinase [1] is given as “weak or no effect”.

On to `CSCC[C@H](NC(=O)[C@@H]1CCCN1C(=O)[C@H](CCC(=O)O)NC(=O)[C@H](CC(=O)O)NC(=O)CNC(=O)[C@H](Cc1ccc(O)cc1)NC(=O)[C@H](Cc1ccc(O)cc1)NC(C)=O)C(N)=O` [SEQ ID NO:11, Ac-YYG-DEPM-NH2] (Ac-YYGDEPM-NH2), for which, at C-proteinase [2], the Cleavability entry is recorded as “excellent” and the “cleavability by C-proteinase” value was “did not drastically alter its cleavability”.

Regarding `CSCC[C@H](NC(=O)[C@H](Cc1ccc(O)cc1)NC(C)=O)C(=O)N[C@@H](CCCNC(=N)N)C(=O)N[C@@H](C)C(=O)N[C@@H](CC(=O)O)C(=O)N[C@@H](CCC(N)=O)C(=O)N[C@@H](C)C(=O)N[C@@H](C)C(N)=O` [SEQ ID NO:5, Ac-YMRA-DQAA-NH2] (Ac-YMRADQAA-NH2), at C-proteinase [2], the Cleavability entry is recorded as “slight” and the “cleavability by C-proteinase” value is on record as “cleaved by C-proteinase”.

On to `NCCCC[C@H](N)C(=O)O` [lysine], for which, in the assay on C-proteinase [1], the “inhibition … (in words)” value is on record as “inhibited”.

For the molecule `CSCC[C@H](NC(=O)[C@@H]1CCCN1C(=O)[C@H](CCC(=O)O)NC(=O)[C@H](CC(=O)O)NC(=O)CNC(=O)[C@H](Cc1ccc(O)cc1)NC(=O)[C@H](Cc1ccc(O)cc1)NC(=O)[C@@H]1CCCN1C(C)=O)C(N)=O` [SEQ ID NO:6, Ac-PYYG-DEPM-NH2] (Ac-PYYGDEPM-NH2), on C-proteinase [2], the Cleavability result is listed as “excellent” and the “cleavability by C-proteinase” value is on record as “cleaved much more efficiently than the three others”.

As to `CC(=O)N[C@@H](CC(C)C)C(=O)N[C@@H](CC(C)C)C(=O)N[C@H](C=O)CCCNC(=N)N` [leupeptin], in the assay on C-proteinase [1], the “inhibition … (in words)” value was “weak or no effect”.

For the molecule `[Cd+2]` [Cd^2+], the “inhibitory at low concentrations” value in the assay with C-proteinase [1] is “inhibitory at low concentrations”.

Turning to `CC(C)C[C@H](NC(=O)[C@@H](NC(=O)N[C@@H](Cc1ccccc1)C(=O)O)[C@@H]1CCN=C(N)N1)C(=O)N[C@H](C=O)Cc1ccccc1` [chymostatin], the “inhibition … (in words)” value in the assay with C-proteinase [1] is reported as “relatively strong inhibitors”.

For the molecule `CC(C)[C@H](NC(=O)[C@H](CCCNC(=N)N)NC(=O)N[C@@H](Cc1ccccc1)C(=O)O)C(=O)N[C@H](C=O)CCCNC(=N)N` [antipain] ({Phe-CO}-Arg-Val-Arg-aldehyde), the “inhibition … (in words)” value with C-proteinase [1] was “weak or no effect”.

As for α2 -Macroglobulin, in the assay with C-proteinase [1], the “inhibition … (in words)” value is “at least partially inhibit”.

`CC(C)C[C@H](NC(=O)N[C@H](C(=O)N[C@@H](CCC(N)=O)C(=O)N[C@@H](C)C=O)[C@@H]1CCNC(=N)N1)C(=O)O` [elastinal]: the “inhibition … (in words)” value with C-proteinase [1] is “weak or no effect”.

For the molecule `N.N.O=S(=O)(O)O` [ammonium sulfate], the “concentrations at which inhibitory” value with C-proteinase [1] is 1 to 10 mM.

B1: ovostatin (protein, UniProt P20740 37-1473, looked up)
Ovostatin: KEPEPQYVLMVPAVLQSDSPSQVCLQFFNLNQTISVRVVLEYDTINTTIFEKNTTTSNGLQCLNFMIPPVTSVSLAFISFTAKGTTFDLKERRSVMIWNMESFVFVQTDKPIYKPGQSVMFRVVALDFNFKPVQEMYPLIAVQDPQNNRIFQWQNVTSEINIVQIEFPLTEEPILGNYKIIVTKKSGERTSHSFLVEEYVLPKFDVTVTAPGSLTVMDSELTVKICAVYTYGQPVEGKVQLSVCRDFDSYGRCKKSPVCQSFTKDLDTDGCLSHILSSKVFELNRIGYKRNLDVKAIVTEKEQVCNLTATQSISITQVMSSLQFENVDHHYRRGIPYFGQIKLVDKDNSPISNKVIQLFVNNKNTHNFTTDINGIAPFSIDTSKIFDPELSLKALYKTSDQCHSEGWIEPSYPDASLSVQRLYSWTSSFVRIEPLWKDMSCGQKRMITVYYILNTEGYEHINIVNFYYVGMAKGKIVLTGEIKVNIQADQNGTFMIPLVVNEKMAPALRLLVYMLHPAKELVADSVRFSIEKCFKNKVQLQFSEKQMLTTSNVSLVIEAAANSFCAVRAVDKSMLLLKSETELSAETIYNLHPIQDLQGYIFNGLNLEDDPQDPCVSSDDIFHKGLYYRPLTSGLGPDVYQFLRDMGMKFFTNSKIRQPTVCTRETVRPPSYFLNAGFTASTHHVKLSAEVAREERGKRHILETIREFFPETWIWDIILINSTGKASVSYTIPDTITEWKASAFCVEELAGFGMSVPATLTAFQPFFVDLTLPYSIIHGEDFLVRANVFNYLNHCIKINVLLLESLDYQAKLISPEDDGCVCAKIRKSYVWNIFPKGTGDVLFSITAETNDDEACEEEALRNIRIDYRDTQIRALLVEPEGIRREETQNFLICMKDDVISQDVAIDLPTNVVEGSPRPSFSVVGDIMGTAIQNVHQLLQMPFGNGEQNMVLFAPNIYVLDYLDKTRQLSEDVKSKTIGYLVSGYQKQLSYKHPDGSYSTFGIRDKEGNTWLTAFVYKSFAEASRFIYIDDNVQAQTLIWLATKQKTDGCFQSTGILVNNAMKGGVENELSLSAYITIALLEAGHSMSHTVIRNAFYCLETASEKNITDIYTQALVAYAFCLAGKAEICESFLRELQKSAKEVDGSKYWEQNQRSAPEKSHLLDHVQSTDVEITSYVLLALLYKPNRSQEDLTKASAIVQWIIRQQNSYGGFASMQDTVVALQALAAYGAATYNSVTQNVIKINSKNTFEKVFTVNNENRLLLQQTPLPQVPGKYSLTVNGTGCVLIQTALRYNIHLPEGAFGFSLSVQTSNASCPRDQPGKFDIVLISSYTGKRSSSNMVIIDVKMLSGFVPVKSSLDQLIDDHTVMQVEYKKNHVLLYLGNILQKRRKEVTFSVEQDFVVTHPKPAPVQIYDYYETEEYAVAEYMSLCRGVVEEMG
For the molecule B1, the “inhibition … (in words)” value with C-proteinase [1] is given as “at least partially inhibit”.
